Earlier results as cited in US20230233480A1, “TRANSDERMAL THERAPEUTIC SYSTEM FOR THE TRANSDERMAL ADMINISTRATION OF FINGOLIMOD” (LTS LOHMANN THERAPIE-SYSTEME AG, priority 2019, published 2023).

SMILES: CCCCCCCCc1ccc(CCC(N)(CO)CO)cc1 [fingolimod, 2-amino-2-[2-(4-octylphenyl)ethyl]propane-1,3-diol]
- ratio of Cmax fingolimod phosphate/Cmax fingolimod (humans at steady state after administration of 0.5 mg/day): about 0.5
- accumulation of blood levels from first dose to steady state (humans, once-daily dosing): ~11 fold
